This is an account of results in patent US6372727B1, “Metalloporphyrin treatment of neurologic disease” (UAB Research Foundation, priority 1999, dated 2002).

Data set [1] relates to ALS-SOD1 (G93A) transgenic mice. The conditions noted are these: cited from earlier work.
Data set [2] deals with bovine serum albumin. The conditions noted are these: reference (35); cited from earlier work.
A short description of data set [3]: MP-catalyzed peroxynitrite decomposition monitored at 302 nm. Type of data set: biochemical. The conditions noted are these: 100 μM peroxynitrite, absence of added reductants. The protocol: Peroxynitrite (100 μM) was added to rapidly stirred cuvettes at 37° C. containing the indicated concentrations of MPs in 0.1 M potassium phosphate, pH 7.4. Ascorbate was added to 150 μM where indicated. Peroxynitrite decomposition was monitored at 302 nm using a Hewlett-Packard diode-array spectrophotometer. Apparent rates (kapparents^−1, average of n=3) were plotted versus MP concentration to determine rate constants in M^−1s^−1.
Reactions contained the indicated concentration of FeTCPPin 1.4 ml of 0.1 M potassium phosphate, pH 7.4 in the absence or presence to 150 μM ascorbic acid. Peroxynitrite (100 μM) was added to rapidly stirred cuvettes at 37° C. and the decay of peroxynitrite was monitored continuously at 302 nm. Decay data were fitted to the equation describing first order decay to obtain apparent decay rates (kapparent sec^−1). Apparent decay rates as a function of FeTCPP were fitted by linear regression and the rate constant was obtained slope of the line.
Peroxynitrite (100 μM) decomposition was determined at 302 nm using a Hewlett-Packard diode-array spectrophotometer fitted with a temperature-controlled cuvette chamber and a water-driven cuvette stirrer. Bolus additions of peroxynitrite were made to vigorously stirred cuvettes containing varying concentrations of MPs (see Table III) while data were collected at a rate of ten points/sec. […] Each reaction was repeated three times and only the first additions of peroxynitrite were averaged. Data were exported for fitting and plotting. Apparent rates of peroxynitrite decomposition were plotted as a function of metalloporphyrin concentration (as shown in FIG. 5) to determine concentration-independent rate constants at 37° C.
Rates of peroxynitrite (100 μM) decomposition were determined at different MP concentrations. Ascorbate was added to 150 μM where indicated. […] Apparent rate constants were plotted versus MP concentration (as in FIG. 5A,B) to determine true rate constants in M^−1s^−1±standard error.

For data set [4] the following is noted: MP 5 μM, GSH 2 mM, 0.1 M potassium phosphate pH 7.4, 37° C. The protocol:
Aliquots (14 μl) were removed at 10 min intervals and added to 1.4 of 0.1 M potassium phosphate, pH 7.4 containing 0.2 mM dithionitrobenzoic acid (Ellman's Reagent) and 50 μM EDTA. GSH concentration was determined by the change in 430 nm absorbance. The extinction coefficient at 430 nm was determined to be 13,900 M^−1cm^−1 using a fresh GSH solution standardized by weight.
(§1) In order to test the hypothesis that Mn(II)- or Fe(II)-porphyrins would be capable of carrying out two-electron reductions of peroxynitrite and thereby decreasing rather than increasing its reactivity, attempts were made to pre-reduce these transition metal-containing MPs prior to addition of peroxynitrite.

Data set [5] is described as follows: Ascorbate oxidation by MPs monitored at 266 nm. Type of data set: biochemical. The conditions noted are these: MP 10 μM, 50 μM ascorbate, 0.1 M potassium phosphate pH 7.4, ± standard error, n=3. The protocol:
as §1
Table V. Ascorbate oxidation by MPs. MPs (10 μM) were added to stirred cuvettes containing 0.1 M potassium phosphate, pH 7.4 and 50 μM ascorbate. Ascorbate oxidation was monitored at 266 nm (ηm=17,700 M^−1cm^−1). Oxidation rates (±standard errors) were determined by fitting the initial linear portion of each curve and averaging the rates (n=3).

Data set [6] is described as follows: MP-catalyzed nitration of HPA: effect of pH, reductants and serum. Type of data set: biochemical. The protocol:
Single additions of 100 μM peroxynitrite were made to reactions containing ascorbate or GSH. Three sequential additions of 100 μM peroxynitrite were made to all other reactions.
(§2) This level of bicarbonate results in rapid saturation of the solution with carbon dioxide (˜1 mM). Solutions were placed into a rapidly stirred cuvette and nine bolus additions (50 μM×3, 100 μM×3, and 200 μM×3) of peroxynitrite were made sequentially while the absorbance was monitored. Increasing amounts of peroxynitrite were added in a sequential manner in order to determine whether nitration efficiency varied with concentration and to determine whether nitration catalysis was maintained with multiple additions (see FIG. 6 inset). Nitration efficiency was defined as the amount of nitropeptide formed per amount of peroxynitrite added and was calculated for each peroxynitrite addition; the values shown are the average of all nine peroxynitrite additions. The absorbance changes associated with nitrotyrosine peptide production were monitored simultaneously at 380, 430, and 460 nm. The extinction coefficients for nitrated GYA at pH 7.4 are 4,400 M^−1cm^−1 at 430 nm and 2,200 M^−1cm^−1 at both 380 and 460 nm. […] Wavelengths used to quantify nitrotyrosine production were chosen to minimize interference by the particular metalloporphyrin used. Experiments using HPA as a nitration target (FIG. 7) contained 8 mM HPA in either 0.1 M potassium phosphate, pH 7.4 or 0.1 M sodium borate, pH 9.1.

For data set [7] the following is noted: references (43), (5); cited from earlier work.
The nature of data set [8]: Peroxynitrite-mediated nitration of GYA peptide. Type of data set: biochemical. The conditions noted are these: 2 mM GYA, 10 μM MP or SOD subunit, 1 mM CO2, pH 7.4, 37° C. How it is done:
Nitration efficiency, defined as the moles of nitrated GYA peptide formed per mole of peroxynitrite added, was determined at a fixed concentration of 10 μM MP or Cu,Zn SOD subunit, or 1 mM CO2 as described below. Increasing amounts of peroxynitrite were added in a sequential manner in order to determine whether nitration efficiency varied with concentration and to determine whether nitration catalysis was maintained with multiple additions (see INSET). Nitration efficiency was calculated for each peroxynitrite addition; the values shown are the average of all nine peroxynitrite additions. Absorbance changes were monitored simultaneously at 380, 430, and 460 nm.
as §2, with “For nitration of GYA peptide (see FIG. 6), reaction solutions contained 2 mM GYA and 10 μM of the indicated MP in 1.4 ml of 0.1 M potassium phosphate, pH 7.4 at 37° C. Comparisons with two previously characterized nitration catalysts, human Cu,Zn superoxide dismutase (hCu,Zn SOD) and carbon dioxide, were made using 10 μM of SOD subunit and 25 mM potassium bicarbonate, respectively, which was pH-adjusted to 7.4. This” for “This”
The relative abilities of several MPs to enhance nitration of the tripeptide GYA was compared using 10 μM MP and sequential bolus additions of 50 μM (×3), 100 μM (×3), and 200 μM (×3)peroxynitrite (FIG. 6, inset).

With `Nc1nc2ccc(OC(F)(F)F)cc2s1` [Rilutek, riluzole], in data set [1], the extension of lifespan result was “about 7 days”.

For “iron(III)-tetra-(2,4,6,-trimethyl-3-,3-disulfonatophenyl)-porphyrin [FeTMPS]”, in [2], the “nitration of tyrosine residues in bovine serum albumin” value is “inhibited”.

As for `C[n+]1ccc(-c2c3nc(c(-c4cc[n+](C)cc4)c4ccc([n-]4)c(-c4cc[n+](C)cc4)c4nc(c(-c5cc[n+](C)cc5)c5ccc2[n-]5)C=C4)C=C3)cc1.[Cl-].[Cl-].[Cl-].[Cl-].[Cl-].[Fe+3]` [FeTMPyP, Iron (III) meso-tetra-(N-methyl-4-pyridyl)-porphine chloride], where the note is “50 μM HOCl”, the “effect of HOCl on the MP” value was “appeared to destroy the metal-pyrrole center”. For the same compound, the “oxidation by H2O2” value (0.5 mM H2O2, 20 min) was “did not appear to oxidize”. Besides, in [3], the “Rate Constants for MP-Catalyzed Decomposition of Peroxynitrite (pH 7.4, 37° C.)” value was 7.9 × 10^5 ± 0.9 M^−1s^−1. Further, the “rate of GSH oxidation” value in data set [4] amounted to 22 µM/min. For the same compound, the “Rate of Ascorbate Oxidation” value in data set [5] came out at 146.20 ± 7.2 µM/min. In data set [6] (8 mM HPA, 10 μM MP, 0.1 M sodium borate pH 9.1, versus non-catalyzed), the “enhancement of nitration yield at pH 9.1” value amounted to 10.7 fold. For the same compound, in data set [6] (concentrations which eliminated non-catalyzed nitration), the “effect of ascorbate and GSH on nitration enhancement” value is recorded as “much less inhibitory effect”. Also, the “ascorbate concentration giving complete inhibition of nitration enhancement” value in [6] (dose-dependent, not shown) came out at 1.5 mM. The “effect of serum on nitration enhancement” value in [6] (fresh human serum 1:10 added prior to peroxynitrite) is given as “much less effect”.

As to “Cu,Zn superoxide dismutase: human Cu,Zn superoxide dismutase, previously characterized endogenous nitration catalyst”, the “rate of reaction with superoxide” value in data set [7] is 2e+09 M⁻¹ s⁻¹. Moreover, the “enhancement of nitration yield” value in data set [8] is on record as 2 fold.
